Laboratory results: PubChem BioAssay (NCI)
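Exposure lasted 48 hours, with cells grown in 96-well plates and compounds tested at five concentrations. Here, GI50 denotes the concentration required for 50% inhibition of growth. TGI is the concentration that stops growth completely.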

Key:
Assay in all cases: NCI tumour cell line growth inhibition, 48 h
HCC-2998 colon = test system: HCC-2998 colon
OVCAR-4 ovarian = test system: OVCAR-4 ovarian
CAKI-1 renal = test system: CAKI-1 renal
NCI-H522 lung = test system: NCI-H522 lung
MDA-MB-468 breast = test system: MDA-MB-468 breast
SF-295 CNS = test system: SF-295 CNS
A549 NSCLC = test system: A549 NSCLC
MALME-3M melanoma = test system: MALME-3M melanoma
MCF7 breast = test system: MCF7 breast
NCI-H226 lung = test system: NCI-H226 lung
U251 CNS = test system: U251 CNS
UO-31 renal = test system: UO-31 renal
HCT-116 colon = test system: HCT-116 colon
SF-268 CNS = test system: SF-268 CNS
RPMI-8226 leukemia = test system: RPMI-8226 leukemia
HL-60(TB) leukemia = test system: HL-60(TB) leukemia
SR leukemia = test system: SR leukemia
NCI-H460 lung = test system: NCI-H460 lung
IGROV1 ovarian = test system: IGROV1 ovarian
MDA-MB-435 = test system: MDA-MB-435
NCI/ADR-RES ovarian = test system: NCI/ADR-RES ovarian
MDA-MB-231 breast = test system: MDA-MB-231 breast
OVCAR-5 ovarian = test system: OVCAR-5 ovarian
CCRF-CEM leukemia = test system: CCRF-CEM leukemia
LOX IMVI melanoma = test system: LOX IMVI melanoma
786-0 renal = test system: 786-0 renal
OVCAR-8 ovarian = test system: OVCAR-8 ovarian
SK-MEL-28 melanoma = test system: SK-MEL-28 melanoma
DU-145 prostate = test system: DU-145 prostate
SN12C renal = test system: SN12C renal
ACHN renal = test system: ACHN renal
SK-MEL-5 melanoma = test system: SK-MEL-5 melanoma
SW-620 colon = test system: SW-620 colon
HT29 colon = test system: HT29 colon
UACC-62 melanoma = test system: UACC-62 melanoma
K-562 leukemia = test system: K-562 leukemia
SNB-75 CNS = test system: SNB-75 CNS
NCI-H23 lung = test system: NCI-H23 lung
SK-MEL-2 melanoma = test system: SK-MEL-2 melanoma
PC-3 prostate = test system: PC-3 prostate
SK-OV-3 ovarian = test system: SK-OV-3 ovarian
UACC-257 melanoma = test system: UACC-257 melanoma
HOP-62 NSCLC = test system: HOP-62 NSCLC
OVCAR-3 ovarian = test system: OVCAR-3 ovarian
A498 renal = test system: A498 renal
MOLT-4 leukemia = test system: MOLT-4 leukemia
EKVX NSCLC = test system: EKVX NSCLC
M14 melanoma = test system: M14 melanoma
T-47D breast = test system: T-47D breast
SF-539 CNS = test system: SF-539 CNS
COLO 205 colon = test system: COLO 205 colon
SNB-19 CNS = test system: SNB-19 CNS
TK-10 renal = test system: TK-10 renal
RXF 393 renal = test system: RXF 393 renal
HS 578T breast = test system: HS 578T breast
HCT-15 colon = test system: HCT-15 colon
HOP-92 NSCLC = test system: HOP-92 NSCLC
KM12 colon = test system: KM12 colon
BT-549 breast = test system: BT-549 breast

## COc1ccc2[nH]cc(-c3cc(N)n4nc(-c5cn(C)c6ccccc56)cc4n3)c2c1
HCC-2998 colon
  GI50: 1940 nM
  TGI: 3.38 µM
OVCAR-4 ovarian
  GI50: 1.7 µM
  TGI: 3.19 µM
CAKI-1 renal
  GI50: 1.73 µM
  TGI: 3.12 µM
NCI-H522 lung
  GI50: 1.52 µM
  TGI: 2.99 µM
MDA-MB-468 breast
  GI50: 1570 nM
  TGI: 3.06 µM
SF-295 CNS
  GI50: 1780 nM
  TGI: 3.34 µM
A549 NSCLC
  GI50: 1.54 µM
  TGI: 2.9 µM
MALME-3M melanoma
  GI50: 1.74 µM
  TGI: 3.14 µM
MCF7 breast
  GI50: 1460 nM
  TGI: 3.25 µM
NCI-H226 lung
  GI50: 1.87 µM
  TGI: 4.74 µM
U251 CNS
  GI50: 1.69 µM
  TGI: 3.15 µM
UO-31 renal
  GI50: 1.46 µM
  TGI: 2.78 µM
HCT-116 colon
  GI50: 1540 nM
  TGI: 3.69 µM
SF-268 CNS
  GI50: 1.94 µM
  TGI: 4.05 µM
RPMI-8226 leukemia
  GI50: 1.94 µM
  TGI: 5 µM
HL-60(TB) leukemia
  GI50: 1390 nM
  TGI: 3.58 µM
SR leukemia
  GI50: 343 nM
  TGI: 1730 nM
NCI-H460 lung
  GI50: 1.9 µM
  TGI: 3.62 µM
IGROV1 ovarian
  GI50: 1.62 µM
  TGI: 3.05 µM
MDA-MB-435
  GI50: 1.77 µM
  TGI: 3.23 µM
NCI/ADR-RES ovarian
  GI50: 1.89 µM
  TGI: 3.82 µM
MDA-MB-231 breast
  GI50: 1.51 µM
  TGI: 2.84 µM
OVCAR-5 ovarian
  GI50: 1.73 µM
  TGI: 3.27 µM
CCRF-CEM leukemia
  GI50: 1.86 µM
  TGI: 6.44 µM
LOX IMVI melanoma
  GI50: 1760 nM
  TGI: 3.28 µM
786-0 renal
  GI50: 1.59 µM
  TGI: 3.12 µM
OVCAR-8 ovarian
  GI50: 1.75 µM
  TGI: 3.27 µM
SK-MEL-28 melanoma
  GI50: 1.78 µM
  TGI: 3.23 µM
DU-145 prostate
  GI50: 1.82 µM
  TGI: 3.52 µM
SN12C renal
  GI50: 1.53 µM
  TGI: 2.86 µM
ACHN renal
  GI50: 1.87 µM
  TGI: 3.43 µM
SK-MEL-5 melanoma
  GI50: 1.76 µM
  TGI: 3.14 µM
SW-620 colon
  GI50: 1.81 µM
  TGI: 3.47 µM
HT29 colon
  GI50: 1800 nM
  TGI: 3.22 µM
UACC-62 melanoma
  GI50: 1.62 µM
  TGI: 2.99 µM
K-562 leukemia
  GI50: 614 nM
  TGI: 6.66 µM
SNB-75 CNS
  GI50: 1.4 µM
  TGI: 2.81 µM
NCI-H23 lung
  GI50: 1.97 µM
  TGI: 3.95 µM
SK-MEL-2 melanoma
  GI50: 1.67 µM
  TGI: 3.13 µM
PC-3 prostate
  GI50: 1.67 µM
  TGI: 3.52 µM
SK-OV-3 ovarian
  GI50: 1.81 µM
  TGI: 3.36 µM
UACC-257 melanoma
  GI50: 1680 nM
  TGI: 3.1 µM
HOP-62 NSCLC
  GI50: 1.89 µM
  TGI: 3.76 µM
OVCAR-3 ovarian
  GI50: 1.8 µM
  TGI: 3.34 µM
A498 renal
  GI50: 1.73 µM
  TGI: 3.23 µM
MOLT-4 leukemia
  GI50: 1590 nM
  TGI: 4.38 µM
EKVX NSCLC
  GI50: 1.8 µM
  TGI: 3.89 µM
M14 melanoma
  GI50: 1.79 µM
  TGI: 3.93 µM
T-47D breast
  GI50: 2.01 µM
  TGI: 4.43 µM
SF-539 CNS
  GI50: 1.61 µM
  TGI: 3.01 µM
COLO 205 colon
  GI50: 1790 nM
  TGI: 3.41 µM
SNB-19 CNS
  GI50: 1.66 µM
  TGI: 3.11 µM
TK-10 renal
  GI50: 1.89 µM
  TGI: 3.37 µM
RXF 393 renal
  GI50: 1740 nM
  TGI: 3.39 µM
HS 578T breast
  GI50: 2.05 µM
  TGI: 4.83 µM
HCT-15 colon
  GI50: 1230 nM
  TGI: 2.52 µM
HOP-92 NSCLC
  GI50: 1.68 µM
  TGI: 3.24 µM
KM12 colon
  GI50: 2.03 µM
  TGI: 4.22 µM

## C#CCNC(=O)CCC(=O)OC[C@]12CC[C@@H](C(=C)C)[C@@H]1C1CC[C@@H]3[C@@]4(C)CCCNC(C)(C)[C@@H]4CC[C@@]3(C)[C@]1(C)CC2 (some centres undefined)
HCC-2998 colon
  GI50: 2550 nM
  TGI: 10.3 µM
OVCAR-4 ovarian
  GI50: 9.11 µM
  TGI: 20.8 µM
CAKI-1 renal
  GI50: 8.1 µM
  TGI: 17.2 µM
NCI-H522 lung
  GI50: 11.7 µM
  TGI: 25.4 µM
MDA-MB-468 breast
  GI50: 2210 nM
  TGI: 10.5 µM
SF-295 CNS
  GI50: 3540 nM
  TGI: 12.2 µM
A549 NSCLC
  GI50: 7.12 µM
  TGI: 16.7 µM
MALME-3M melanoma
  GI50: 9.03 µM
  TGI: 18.5 µM
MCF7 breast
  GI50: 2360 nM
  TGI: 9.66 µM
NCI-H226 lung
  GI50: 7.58 µM
  TGI: 18.3 µM
U251 CNS
  GI50: 6.62 µM
  TGI: 16.8 µM
UO-31 renal
  GI50: 6.96 µM
  TGI: 14.9 µM
HCT-116 colon
  GI50: 3310 nM
  TGI: 27.4 µM
SF-268 CNS
  GI50: 10.5 µM
  TGI: 23.8 µM
RPMI-8226 leukemia
  GI50: 4.15 µM
  TGI: 20.7 µM
HL-60(TB) leukemia
  GI50: 2370 nM
  TGI: 14 µM
SR leukemia
  GI50: > 64800 nM
  TGI: > 64800 nM
NCI-H460 lung
  GI50: 7.89 µM
  TGI: 18.6 µM
IGROV1 ovarian
  GI50: 7.29 µM
  TGI: 16.3 µM
MDA-MB-435
  GI50: 6.9 µM
  TGI: 15.2 µM
NCI/ADR-RES ovarian
  GI50: 5.48 µM
  TGI: 16.6 µM
MDA-MB-231 breast
  GI50: 8.83 µM
  TGI: 17.7 µM
OVCAR-5 ovarian
  GI50: 9.38 µM
  TGI: 17.9 µM
CCRF-CEM leukemia
  GI50: 4.24 µM
  TGI: 37.1 µM
LOX IMVI melanoma
  GI50: 1230 nM
  TGI: 2.83 µM
786-0 renal
  GI50: 8.29 µM
  TGI: 23.6 µM
OVCAR-8 ovarian
  GI50: 11.1 µM
  TGI: 33.8 µM
SK-MEL-28 melanoma
  GI50: 8.2 µM
  TGI: 16.5 µM
DU-145 prostate
  GI50: 10 µM
  TGI: 21.5 µM
SN12C renal
  GI50: 7.89 µM
  TGI: 16.7 µM
BT-549 breast
  GI50: 11.3 µM
  TGI: 21.1 µM
ACHN renal
  GI50: 10.1 µM
  TGI: 18.9 µM
SK-MEL-5 melanoma
  GI50: 6.78 µM
  TGI: 14.4 µM
SW-620 colon
  GI50: 7.25 µM
  TGI: 16.7 µM
HT29 colon
  GI50: 2710 nM
  TGI: 13.9 µM
UACC-62 melanoma
  GI50: 9.04 µM
  TGI: 18.1 µM
K-562 leukemia
  GI50: 1780 nM
  TGI: 16.3 µM
SNB-75 CNS
  GI50: 9.12 µM
  TGI: 18.7 µM
NCI-H23 lung
  GI50: 7.89 µM
  TGI: 16.1 µM
SK-MEL-2 melanoma
  GI50: 11.7 µM
  TGI: 23.3 µM
PC-3 prostate
  GI50: 4.8 µM
  TGI: 16.3 µM
SK-OV-3 ovarian
  GI50: 9.94 µM
  TGI: 20 µM
UACC-257 melanoma
  GI50: 2510 nM
  TGI: 9.16 µM
HOP-62 NSCLC
  GI50: 11.7 µM
  TGI: 23.7 µM
OVCAR-3 ovarian
  GI50: 7.73 µM
  TGI: 18.2 µM
A498 renal
  GI50: 10.3 µM
  TGI: 20.9 µM
MOLT-4 leukemia
  GI50: 2420 nM
  TGI: 18.7 µM
EKVX NSCLC
  GI50: 6.5 µM
  TGI: 14.2 µM
M14 melanoma
  GI50: 6.83 µM
  TGI: 19 µM
T-47D breast
  GI50: 8.06 µM
  TGI: 21.1 µM
SF-539 CNS
  GI50: 7.48 µM
  TGI: 15.7 µM
COLO 205 colon
  GI50: 2250 nM
  TGI: 7.29 µM
SNB-19 CNS
  GI50: 8.91 µM
  TGI: 17.6 µM
TK-10 renal
  GI50: 10.1 µM
  TGI: 22 µM
RXF 393 renal
  GI50: 3510 nM
  TGI: 13.6 µM
HS 578T breast
  GI50: 9.96 µM
  TGI: 24.2 µM
HCT-15 colon
  GI50: 3890 nM
  TGI: 12.4 µM
HOP-92 NSCLC
  GI50: 7.54 µM
  TGI: 19 µM
KM12 colon
  GI50: 8.73 µM
  TGI: 18.8 µM
